Experiments:
[1] = antioxidant ability by usual chemical methods (e.g. DPPH)
[2] = tested on: Jurkat cells; assay: comet assay (single cell gel electrophoresis): protection of DNA of intact cells exposed to H2O2; format: cell-based; details: H2O2 generated by glucose oxidase; for protective activity on cells against oxidative stress (decrease of induced DNA damage): 10 min exposure
Description: In the analysis of the antioxidant activity of the extracts I, II, III and IV, as well as, of the pure Compounds 1-9, a method based on measuring the relative protection of DNA of intact cells was performed. This was done with the use of Jurkat cell cultures (a cell line of T-lymph-cells), which were grown in RPMI-1640 enriched with fetal bovine calf serum (10%), penicillin, streptomycin and glutamine. The cells were incubated with the extracts or the purified compounds in the presence of glucose oxidase (60 ng/100 ml) used for the generation of H2O2. After exposure of the cells to H2O2 for 10 min, the degree of DNA damage was evaluated using a specialized method, “single cell gel electrophoresis”, also known as the “comet assay”. The comet assay method is described in the following references: 1. Barbouti A. et al., “DNA Damage And Apoptosis In Hydrogen Peroxide-Exposed Jurkat Cells: Bolus Addition Versus Continuous Generation Of H2O2,” Free Radical Biology and Medicine, 33(5): 691-702, Elsevier Press (2002); as well as Panagiotidis M. et al. (1999) Free Radical Biology and Medicine, 26(5-6): 548-556; Doulias P-T. et al. (2001) Free Radical Biology and Medicine, 30(6): 679-685; Tselepis A. et al. (2001) Free Radical Biology and Medicine, 30(12): 1357-1364; and Barbouti A. et al. (2001) Free Radical Biology and Medicine, 31(4): 490-498 5.
Jurkat cells—a cell line of lymphocytic origin—were exposed to continuously generated hydrogen peroxide, H2O2 and the effects of this treatment on cellular DNA was evaluated according to the references above. […]
The graphic results of the “comet assay” for the waste water extract (IV) and tyrosol (Compound 4), 2-(5-ethylidene-2-oxo-tetrahydropyran-4-yl) acetic acid (from the compound class of lactones or Compound 6) and hydroxytyrosol (Compound 7) are depicted below in FIGS. 3-6, respectively. […] The values are expressed as mean ±SD (n=3).

Compound	antioxidant ability [1]	dose dependence of protection [2]	protective activity on cells against oxidative stress (decrease of induced DNA damage) [2]
CC=C1COC(=O)CC1CC(=O)O (stereo not shown) [2-(5-ethylidene-2-oxo-tetrahydropyran-4-yl) acetic acid]	does not show any antioxidant ability	dose-dependent protection	strong protective activity
OCCc1ccc(O)cc1 [tyrosol, Tyrosol]	–	–	not

Reference: patent US6906100B2, “Compounds and compositions derived from olives and methods of the use thereof” (Lavipharm S.A., priority 2002, dated 2005)
